Test results as given in the supplement of paper PMC11451515.

Experiments:
Details in all cases: 48 h
SEM cells [1] = assay: cell viability relative to DMSO control; higher = less cytotoxic
Method in brief: (§1)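 NOMO1 or SEM (500 cells/well) or P12-Ichikawa (1000 cells/well) leukemia cells were adapted for at least four passages in each medium. They were seeded in 1536-well plates (5 μl) and pin-dosed with library compounds in DMSO over an 11-point threefold series, 47 μM to 0.79 nM. CellTiter-Glo One luminescence was read after 48 h at 37°C. Viability is the per-plate percentage relative to DMSO wells, with cell-free wells as background.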

P12-Ichikawa [2] = assay: as above
Method in brief: as §1

NOMO1 [3] = assay: as above
Method in brief: as §1

SEM cells [4] = assay: AUC of viability dose-response curve (% viability x log10 dose units); higher = less sensitive
Method in brief: (§2)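 Leukemia cells adapted to each medium were seeded in 1536-well plates (500 or 1000 cells/well). They were dosed with library compounds in DMSO at 11 threefold doses, 47 μM to 0.79 nM, for 48 h at 37°C. CellTiter-Glo One luminescence was normalised per plate to DMSO and cell-free wells. Area under the curve was integrated by trapezoidal rule over log10 doses on a four-parameter log-logistic fit; curves exceeding full viability were scaled and curves failing quality control removed.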

P12-Ichikawa [5] = assay: as above
Method in brief: as §2

NOMO1 [6] = assay: as above
Method in brief: as §2

COCCCN1CCC(NC(=O)c2cc(Cl)c(N)c3c2OCC3)CC1
cell viability [%]
Details	NOMO1 [3]	P12-Ichikawa [2]	SEM cells [1]
HPLM + 10% dialyzed FBS, 0.000781 µM	116	114	86.8
HPLM + 10% dialyzed FBS, 0.00234 µM	124	124	90.1
HPLM + 10% dialyzed FBS, 0.00702 µM	127	127	115
HPLM + 10% dialyzed FBS, 0.0211 µM	119	132	116
HPLM + 10% dialyzed FBS, 0.0632 µM	147	132	129
HPLM + 10% dialyzed FBS, 0.19 µM	137	134	123
HPLM + 10% dialyzed FBS, 0.569 µM	133	134	114
HPLM + 10% dialyzed FBS, 1.71 µM	150	133	119
HPLM + 10% dialyzed FBS, 5.12 µM	142	146	147
HPLM + 10% dialyzed FBS, 15.4 µM	137	132	123
HPLM + 10% dialyzed FBS, 46.1 µM	110	124	114
RPMI 5 mM glucose + 10% FBS, 0.000781 µM	–	–	110
RPMI 5 mM glucose + 10% FBS, 0.00234 µM	–	–	115
RPMI 5 mM glucose + 10% FBS, 0.00702 µM	–	–	116
RPMI 5 mM glucose + 10% FBS, 0.0211 µM	–	–	122
RPMI 5 mM glucose + 10% FBS, 0.0632 µM	–	–	149
RPMI 5 mM glucose + 10% FBS, 0.19 µM	–	–	134
RPMI 5 mM glucose + 10% FBS, 0.569 µM	–	–	130
RPMI 5 mM glucose + 10% FBS, 1.71 µM	–	–	114
RPMI 5 mM glucose + 10% FBS, 5.12 µM	–	–	147
RPMI 5 mM glucose + 10% FBS, 15.4 µM	–	–	140
RPMI 5 mM glucose + 10% FBS, 46.1 µM	–	–	111
RPMI 5 mM glucose + 10% dialyzed FBS, 0.000781 µM	–	–	118
RPMI 5 mM glucose + 10% dialyzed FBS, 0.00234 µM	–	–	119
RPMI 5 mM glucose + 10% dialyzed FBS, 0.00702 µM	–	–	127
RPMI 5 mM glucose + 10% dialyzed FBS, 0.0211 µM	–	–	114
RPMI 5 mM glucose + 10% dialyzed FBS, 0.0632 µM	–	–	130
RPMI 5 mM glucose + 10% dialyzed FBS, 0.19 µM	–	–	143
RPMI 5 mM glucose + 10% dialyzed FBS, 0.569 µM	–	–	116
RPMI 5 mM glucose + 10% dialyzed FBS, 1.71 µM	–	–	156
RPMI 5 mM glucose + 10% dialyzed FBS, 5.12 µM	–	–	128
RPMI 5 mM glucose + 10% dialyzed FBS, 15.4 µM	–	–	143
RPMI 5 mM glucose + 10% dialyzed FBS, 46.1 µM	–	–	113

AUC of viability dose-response curve
Details	NOMO1 [6]	P12-Ichikawa [5]	SEM cells [4]
HPLM + 10% dialyzed FBS	460	465	453
RPMI 5 mM glucose + 10% FBS	456	467	451
RPMI 5 mM glucose + 10% dialyzed FBS	468	473	454

CC1(C)O[C@@H]2C[C@H]3[C@@H]4CCC5=CC(=O)C=C[C@]5(C)[C@H]4[C@@H](O)C[C@]3(C)[C@]2(C(=O)CO)O1
cell viability [%]
Details	NOMO1 [3]	P12-Ichikawa [2]	SEM cells [1]
HPLM + 10% dialyzed FBS, 0.000781 µM	95	100	74.9
HPLM + 10% dialyzed FBS, 0.00234 µM	92.4	104	34.7
HPLM + 10% dialyzed FBS, 0.00702 µM	104	106	89.1
HPLM + 10% dialyzed FBS, 0.0211 µM	90.7	91.8	77
HPLM + 10% dialyzed FBS, 0.0632 µM	119	93	72.8
HPLM + 10% dialyzed FBS, 0.19 µM	108	90.2	73.6
HPLM + 10% dialyzed FBS, 0.569 µM	117	70.7	66.3
HPLM + 10% dialyzed FBS, 1.71 µM	98.5	64	57.7
HPLM + 10% dialyzed FBS, 5.12 µM	95.2	66	60.3
HPLM + 10% dialyzed FBS, 15.4 µM	91.9	65.2	60.3
HPLM + 10% dialyzed FBS, 46.1 µM	101	62.9	53.6
RPMI 5 mM glucose + 10% FBS, 0.000781 µM	87.2	90.3	99.8
RPMI 5 mM glucose + 10% FBS, 0.00234 µM	92.5	100	39.1
RPMI 5 mM glucose + 10% FBS, 0.00702 µM	90.4	107	96.1
RPMI 5 mM glucose + 10% FBS, 0.0211 µM	88.7	106	95.7
RPMI 5 mM glucose + 10% FBS, 0.0632 µM	97.4	82.4	89.1
RPMI 5 mM glucose + 10% FBS, 0.19 µM	110	76.3	83.2
RPMI 5 mM glucose + 10% FBS, 0.569 µM	88.7	59.2	67.5
RPMI 5 mM glucose + 10% FBS, 1.71 µM	92.5	53	61.8
RPMI 5 mM glucose + 10% FBS, 5.12 µM	98.5	52	65.2
RPMI 5 mM glucose + 10% FBS, 15.4 µM	87.8	50.4	58.4
RPMI 5 mM glucose + 10% FBS, 46.1 µM	93.6	51.5	55.4
RPMI 5 mM glucose + 10% dialyzed FBS, 0.000781 µM	96.7	90.2	79.7
RPMI 5 mM glucose + 10% dialyzed FBS, 0.00234 µM	91.4	98.8	37.8
RPMI 5 mM glucose + 10% dialyzed FBS, 0.00702 µM	90.9	97.8	82.4
RPMI 5 mM glucose + 10% dialyzed FBS, 0.0211 µM	90.4	92.4	81.8
RPMI 5 mM glucose + 10% dialyzed FBS, 0.0632 µM	94.2	76.6	80
RPMI 5 mM glucose + 10% dialyzed FBS, 0.19 µM	92.9	72.8	88.1
RPMI 5 mM glucose + 10% dialyzed FBS, 0.569 µM	106	56.6	68.4
RPMI 5 mM glucose + 10% dialyzed FBS, 1.71 µM	109	49.8	51.9
RPMI 5 mM glucose + 10% dialyzed FBS, 5.12 µM	104	45.4	53.9
RPMI 5 mM glucose + 10% dialyzed FBS, 15.4 µM	85.6	40.9	49.8
RPMI 5 mM glucose + 10% dialyzed FBS, 46.1 µM	103	42.1	53.4

AUC of viability dose-response curve
Details	NOMO1 [6]	P12-Ichikawa [5]	SEM cells [4]
HPLM + 10% dialyzed FBS	474	391	313
RPMI 5 mM glucose + 10% FBS	445	357	353
RPMI 5 mM glucose + 10% dialyzed FBS	454	331	318

C[S+]([O-])(=O)C1=CC=C(C=C1)C/2=C(/C(=O)OC2)C3=CC=CC=C3
cell viability [%]
Details	NOMO1 [3]	P12-Ichikawa [2]	SEM cells [1]
HPLM + 10% dialyzed FBS, 0.000781 µM	–	113	96
HPLM + 10% dialyzed FBS, 0.00234 µM	–	120	102
HPLM + 10% dialyzed FBS, 0.00702 µM	–	112	105
HPLM + 10% dialyzed FBS, 0.0211 µM	–	122	107
HPLM + 10% dialyzed FBS, 0.0632 µM	–	126	103
HPLM + 10% dialyzed FBS, 0.19 µM	–	126	115
HPLM + 10% dialyzed FBS, 0.569 µM	–	117	104
HPLM + 10% dialyzed FBS, 1.71 µM	–	125	115
HPLM + 10% dialyzed FBS, 5.12 µM	–	123	115
HPLM + 10% dialyzed FBS, 15.4 µM	–	125	79.7
HPLM + 10% dialyzed FBS, 46.1 µM	–	122	94.1
RPMI 5 mM glucose + 10% FBS, 0.000781 µM	106	108	100
RPMI 5 mM glucose + 10% FBS, 0.00234 µM	110	125	107
RPMI 5 mM glucose + 10% FBS, 0.00702 µM	118	112	104
RPMI 5 mM glucose + 10% FBS, 0.0211 µM	109	115	119
RPMI 5 mM glucose + 10% FBS, 0.0632 µM	120	124	114
RPMI 5 mM glucose + 10% FBS, 0.19 µM	115	133	122
RPMI 5 mM glucose + 10% FBS, 0.569 µM	118	141	104
RPMI 5 mM glucose + 10% FBS, 1.71 µM	119	135	95.1
RPMI 5 mM glucose + 10% FBS, 5.12 µM	114	134	102
RPMI 5 mM glucose + 10% FBS, 15.4 µM	108	132	66.9
RPMI 5 mM glucose + 10% FBS, 46.1 µM	123	131	11.4
RPMI 5 mM glucose + 10% dialyzed FBS, 0.000781 µM	107	107	89.4
RPMI 5 mM glucose + 10% dialyzed FBS, 0.00234 µM	118	120	105
RPMI 5 mM glucose + 10% dialyzed FBS, 0.00702 µM	106	115	115
RPMI 5 mM glucose + 10% dialyzed FBS, 0.0211 µM	111	110	111
RPMI 5 mM glucose + 10% dialyzed FBS, 0.0632 µM	121	123	112
RPMI 5 mM glucose + 10% dialyzed FBS, 0.19 µM	118	120	120
RPMI 5 mM glucose + 10% dialyzed FBS, 0.569 µM	123	120	119
RPMI 5 mM glucose + 10% dialyzed FBS, 1.71 µM	120	118	117
RPMI 5 mM glucose + 10% dialyzed FBS, 5.12 µM	108	125	124
RPMI 5 mM glucose + 10% dialyzed FBS, 15.4 µM	131	121	75
RPMI 5 mM glucose + 10% dialyzed FBS, 46.1 µM	129	109	71.6

AUC of viability dose-response curve
Details	NOMO1 [6]	P12-Ichikawa [5]	SEM cells [4]
HPLM + 10% dialyzed FBS	465	468	466
RPMI 5 mM glucose + 10% FBS	463	449	431
RPMI 5 mM glucose + 10% dialyzed FBS	445	472	453
